According to patent US20100316728A1, “Therapeutic mask and Method of Treatment Employing the Same” (priority 2009, published 2010):
Values joined by “and” are separate entries in the source; they are usually repeats but may differ in a detail not shown here. Equal entries are not always repeated.

What was measured:
Format in all cases: in vivo, human
patients [1] = test: Numbness felt by patients using the mask (with Lidocaine); conditions: per patient
Description: A separate and distinct benefit has been discovered through the use of the instant invention. […] This aids the speed in which the process can be performed on a patient.

patients [2] = test: Pain level felt by patients using the mask (with Lidocaine)
patients [3] = test: Patient questionnaire on mask application, removal and skin reactions (dryness, burning, redness, itching, stinging); conditions: per patient, yes/no
[4] = Table IX, CO2 procedure, unmasked side
[5] = Table X, CO2 procedure, unmasked side
[6] = Table XI, unmasked side, 0-10 scale
[7] = Pain Rate section, Results with Lidocaine, right side = side without mask, per patient
[8] = Results with Lidocaine, left side, mask on one side only, one value per patient, 10 = highest pain
[9] = Results with Lidocaine, right side, mask on one side only, one value per patient, 10 = highest pain
[10] = Table IX, CO2 procedure, unmasked side, per patient
[11] = Table VIII Pain Data, unmasked side, per patient
[12] = Table X, CO2 procedure, unmasked side, per patient
[13] = Table XII, unmasked side, 0-10 scale, per patient

Structure (SMILES): CCN(CC)CC(=O)Nc1c(C)cccc1C [Lidocaine]
- Numbness Cheeks- (Left Side) (patients [1]; 1-10 scale, cheeks, left side): 4 and 8 and 9 and 3
- Numbness Cheeks- (Right Side) (patients [1]; 1-10 scale, cheeks, right side): 7 (3×) and 3 and 5 and 4 and 6
- Numbness- Chin (Left Side) (patients [1]; 1-10 scale, chin, left side): 4 and 8 and 9 and 7
- Numbness- Chin (Right Side) (patients [1]; 1-10 scale, chin, right side): 3 and 4 (2×) and 5 and 7 (2×) and 6
- Numbness- Forehead (Left Side) (patients [1]; 1-10 scale, forehead, left side): 4 and 8 and 9 and 2
- Numbness- Forehead (Right Side) (patients [1]; 1-10 scale, forehead, right side): 4 (2×) and 3 and 6 (2×) and 7 and 8
- Numbness- Mouth (Left Side) (patients [1]; 1-10 scale, mouth, left side): 4 and 8 and 9 and 5
- Numbness- Mouth (Right Side) (patients [1]; 1-10 scale, mouth, right side): 5 and 3 and 6 (2×) and 7 and 4 and 8
- Numbness Cheeks- (Unmasked Side) (patients [1]; [4]): 8 (3×) and 6 (4×)
- Numbness- Chin (Unmasked Side) (patients [1]; [4]): 9 and 6 (4×) and 8 (2×)
- Numbness- Forehead (Unmasked Side) (patients [1]; [4]): 9 and 6 (4×) and 8 (2×)
- Numbness- Mouth (Unmasked Side) (patients [1]; [4]): 8 (3×) and 6 (4×)
- Numbness Cheeks- (Unmasked Side) (patients [1]; [5]): 8 (3×) and 6 (4×)
- Numbness- Chin (Unmasked Side) (patients [1]; [5]): 9 and 6 (4×) and 8 (2×)
- Numbness- Forehead (Unmasked Side) (patients [1]; [5]): 9 and 6 (4×) and 8 (2×)
- Numbness- Mouth (Unmasked Side) (patients [1]; [5]): 8 (3×) and 6 (4×)
- Numbness Average Unmasked Side (patients [1]; Table XI summary, 0-10 scale): 8.5 and 6 (4×) and 8 (2×)
- Average (patients [1]; Table XI, average numbness, unmasked side, 0-10 scale): 8.5 and 6 (4×) and 8 (2×)
- Numbness Cheeks- (Unmasked Side) (patients [1]; [6]): 8 (3×) and 6 (4×)
- Numbness- Chin (Unmasked Side) (patients [1]; [6]): 9 and 6 (4×) and 8 (2×)
- Numbness- Forehead (Unmasked Side) (patients [1]; [6]): 9 and 6 (4×) and 8 (2×)
- Numbness- Mouth (Unmasked Side) (patients [1]; [6]): 8 (3×) and 6 (4×)
- Pain After proc. Cheeks (Left Side) (patients [2]; 1-10 scale, 1 least pain, 10 highest, after Fraxel or CO2 procedure, cheeks, left side): 10 and 6 and 5
- Pain After proc. Chin (Left Side) (patients [2]; 1-10 scale, 1 least pain, 10 highest, after Fraxel or CO2 procedure, chin, left side): 10 and 6 and 5
- Pain After proc. Forehead (Left Side) (patients [2]; 1-10 scale, 1 least pain, 10 highest, after Fraxel or CO2 procedure, forehead, left side): 10 and 6
- Average Right Side (patients [2]; Pain Rate section, Results with Lidocaine, average pain, right side = side without mask, per patient): 8.00 and 5.00 and 9.00 and 2.00
- Pain After proc. Cheeks (Right Side) (patients [2]; [7]): 8 and 5 and 9 and 2
- Pain After proc. Chin (Right Side) (patients [2]; [7]): 8 and 5 and 9 and 2
- Pain After proc. Forehead (Right Side) (patients [2]; [7]): 8 and 5 and 9 and 2
- Pain After proc. Mouth (Right Side) (patients [2]; [7]): 8 and 5 and 9 and 2
- Average Left Side (patients [2]; Results with Lidocaine, average pain of mouth, cheeks, forehead, chin, left side, per patient): 10.00 and 6.00 and 5.00
- Average Right Side (patients [2]; Results with Lidocaine, average pain of mouth, cheeks, forehead, chin, right side, per patient): 4.00 and 8.25 and 9.25 and 9.00 and 4.50 and 10.00
- Pain After proc. Cheeks (Left Side) (patients [2]; [8]): 10 and 6 and 5
- Pain After proc. Chin (Left Side) (patients [2]; [8]): 10 and 6 and 5
- Pain After proc. Forehead (Left Side) (patients [2]; [8]): 10 and 6 (2×)
- Pain After proc. Mouth (Left Side) (patients [2]; [8]): 10 and 6 and 4
- Pain After proc. Cheeks (Right Side) (patients [2]; [9]): 4 and 7 and 8 and 9 (2×) and 10
- Pain After proc. Chin (Right Side) (patients [2]; [9]): 4 and 6 (2×) and 8 and 9 and 10
- Pain After proc. Forehead (Right Side) (patients [2]; [9]): 4 (2×) and 10 (2×) and 8 and 9
- Pain After proc. Mouth (Right Side) (patients [2]; [9]): 4 (2×) and 10 (2×) and 8 and 9
- Pain After proc. Cheeks (Unmasked Side) (patients [2]; [10]): 8 (3×) and 9 and 2 and 5 and 6
- Pain After proc. Chin (Unmasked Side) (patients [2]; [10]): 8 (3×) and 9 and 2 and 5 and 6
- Pain After proc. Forehead (Unmasked Side) (patients [2]; [10]): 8 (3×) and 9 and 2 and 5 and 7
- Pain After proc. Mouth (Unmasked Side) (patients [2]; [10]): 8 (3×) and 9 and 2 and 5 and 6
- Average Pain (Unmasked Side) (patients [2]; [11]): 8 (3×) and 9 and 2 and 5 and 6.3
- Pain After proc. Cheeks (Unmasked Side) (patients [2]; [11]): 8 (3×) and 9 and 2 and 5 and 6
- Pain After proc. Chin (Unmasked Side) (patients [2]; [11]): 8 (3×) and 9 and 2 and 5 and 6
- Pain After proc. Forehead (Unmasked Side) (patients [2]; [11]): 8 (3×) and 9 and 2 and 5 and 7
- Pain After proc. Mouth (Unmasked Side) (patients [2]; [11]): 8 (3×) and 9 and 2 and 5 and 6
- Pain After proc. Cheeks (Unmasked Side) (patients [2]; [12]): 8 (3×) and 9 and 2 and 5 and 6
- Pain After proc. Chin (Unmasked Side) (patients [2]; [12]): 8 (3×) and 9 and 2 and 5 and 6
- Pain After proc. Forehead (Unmasked Side) (patients [2]; [12]): 8 (3×) and 9 and 2 and 5 and 7
- Pain After proc. Mouth (Unmasked Side) (patients [2]; [12]): 8 (3×) and 9 and 2 and 5 and 6
- Average Pain (Unmasked Side) (patients [2]; Table XII summary, 0-10 scale, per patient): 8 (3×) and 9 and 2 and 5 and 6.3
- Average Pain (Unmasked Side) (patients [2]; [13]): 8 (3×) and 9 and 2 and 5 and 6.3
- Pain After proc. Cheeks (Unmasked Side) (patients [2]; [13]): 8 (3×) and 9 and 2 and 5 and 6
- Pain After proc. Chin (Unmasked Side) (patients [2]; [13]): 8 (3×) and 9 and 2 and 5 and 6
- Pain After proc. Forehead (Unmasked Side) (patients [2]; [13]): 8 (3×) and 9 and 2 and 5 and 7
- Pain After proc. Mouth (Unmasked Side) (patients [2]; [13]): 8 (3×) and 9 and 2 and 5 and 6
- Dryness Right side (patients [3]): no
- Burning Right (patients [3]; right side): no (2×) and yes
- Itching Right (patients [3]; right side): no
- Redness Right (patients [3]; right side): yes (2×) and no
- Stinging Right (patients [3]; right side): yes (2×) and no
